The text below walks through data of US20250145575A1, “MACROMOLECULE-SUPPORTED 8-SULFONYL-BENZAZEPINE COMPOUNDS AND THEIR USES” (BOLT BIOTHERAPEUTICS, INC., priority 2022, published 2025).

The term EC50 denotes the concentration that produces a half-maximal response.

The structures appear in SMILES notation.

For one test, the target named is T1, human TLR7 (Homo sapiens, UniProt Q9NYK1).
T1 construct: host or cells: HEK293 reporter cells
T1 sequence (Q9NYK1 27-1049): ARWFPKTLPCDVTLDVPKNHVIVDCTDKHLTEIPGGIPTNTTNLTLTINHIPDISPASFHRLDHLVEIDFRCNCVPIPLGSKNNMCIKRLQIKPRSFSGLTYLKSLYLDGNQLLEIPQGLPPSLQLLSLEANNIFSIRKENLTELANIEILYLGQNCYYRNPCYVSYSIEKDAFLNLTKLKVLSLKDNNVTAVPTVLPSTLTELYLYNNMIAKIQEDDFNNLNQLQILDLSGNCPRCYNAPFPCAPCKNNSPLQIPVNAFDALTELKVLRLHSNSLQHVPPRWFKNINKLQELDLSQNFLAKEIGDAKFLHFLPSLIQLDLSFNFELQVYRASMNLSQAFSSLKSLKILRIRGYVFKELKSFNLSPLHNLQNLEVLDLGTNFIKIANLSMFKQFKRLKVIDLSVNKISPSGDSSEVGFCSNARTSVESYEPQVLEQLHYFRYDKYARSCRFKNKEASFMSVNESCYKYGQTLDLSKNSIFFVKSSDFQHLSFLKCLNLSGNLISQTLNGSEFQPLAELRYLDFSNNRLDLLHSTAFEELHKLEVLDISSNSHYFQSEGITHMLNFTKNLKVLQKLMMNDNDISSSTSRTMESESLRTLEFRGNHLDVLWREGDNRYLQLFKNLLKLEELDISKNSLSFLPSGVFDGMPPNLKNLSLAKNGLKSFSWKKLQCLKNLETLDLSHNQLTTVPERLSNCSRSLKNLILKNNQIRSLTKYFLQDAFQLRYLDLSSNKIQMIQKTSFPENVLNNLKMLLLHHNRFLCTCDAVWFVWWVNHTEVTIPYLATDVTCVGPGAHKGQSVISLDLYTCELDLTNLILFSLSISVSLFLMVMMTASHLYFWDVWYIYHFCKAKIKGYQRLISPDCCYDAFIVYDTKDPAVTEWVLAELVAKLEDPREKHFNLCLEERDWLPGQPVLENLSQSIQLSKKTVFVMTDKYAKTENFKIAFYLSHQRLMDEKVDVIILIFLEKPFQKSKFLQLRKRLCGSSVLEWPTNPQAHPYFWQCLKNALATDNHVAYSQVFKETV
The test is described as follows: HEK293 NFKB reporter assay, human TLR7. Format: cell-based. As to conditions: HEK293 reporter cells expressing human TLR7; read-out: HEK293 hTLR7 EC50. On the procedure: (§1) Exemplary 8-sulfonyl-2-aminobenzazepine compounds (8SO2Bz) of the invention were synthesized, purified, and characterized by mass spectrometry and shown to have the expected mass. Additional experimental procedures are found in the Examples. Activity against HEK293 NFKB reporter cells expressing human TLR7 or human TLR8 was measured according to Example 202.
(§2) Example 202 HEK Reporter Assay
(§3) HEK293 reporter cells expressing human TLR7 or human TLR8 were purchased from Invivogen and vendor protocols were followed for cellular propagation and experimentation. Briefly, cells were grown to 80-85% confluence at 5% CO2 in DMEM supplemented with 10% FBS, Zeocin, and Blasticidin. Cells were then seeded in 96-well flat plates at 4×10^4 cells/well with substrate containing HEK detection medium and immunostimulatory molecules (MSC). Activity was measured using a plate reader at 620-655 nm wavelength.
On the technique in general: A reporter such as luciferase makes a cellular process visible.

A further test deals with T2, human TLR8 (Homo sapiens, UniProt Q9NR97).
T2 construct: host or cells: HEK293 reporter cells
T2 sequence (Q9NR97 27-1041): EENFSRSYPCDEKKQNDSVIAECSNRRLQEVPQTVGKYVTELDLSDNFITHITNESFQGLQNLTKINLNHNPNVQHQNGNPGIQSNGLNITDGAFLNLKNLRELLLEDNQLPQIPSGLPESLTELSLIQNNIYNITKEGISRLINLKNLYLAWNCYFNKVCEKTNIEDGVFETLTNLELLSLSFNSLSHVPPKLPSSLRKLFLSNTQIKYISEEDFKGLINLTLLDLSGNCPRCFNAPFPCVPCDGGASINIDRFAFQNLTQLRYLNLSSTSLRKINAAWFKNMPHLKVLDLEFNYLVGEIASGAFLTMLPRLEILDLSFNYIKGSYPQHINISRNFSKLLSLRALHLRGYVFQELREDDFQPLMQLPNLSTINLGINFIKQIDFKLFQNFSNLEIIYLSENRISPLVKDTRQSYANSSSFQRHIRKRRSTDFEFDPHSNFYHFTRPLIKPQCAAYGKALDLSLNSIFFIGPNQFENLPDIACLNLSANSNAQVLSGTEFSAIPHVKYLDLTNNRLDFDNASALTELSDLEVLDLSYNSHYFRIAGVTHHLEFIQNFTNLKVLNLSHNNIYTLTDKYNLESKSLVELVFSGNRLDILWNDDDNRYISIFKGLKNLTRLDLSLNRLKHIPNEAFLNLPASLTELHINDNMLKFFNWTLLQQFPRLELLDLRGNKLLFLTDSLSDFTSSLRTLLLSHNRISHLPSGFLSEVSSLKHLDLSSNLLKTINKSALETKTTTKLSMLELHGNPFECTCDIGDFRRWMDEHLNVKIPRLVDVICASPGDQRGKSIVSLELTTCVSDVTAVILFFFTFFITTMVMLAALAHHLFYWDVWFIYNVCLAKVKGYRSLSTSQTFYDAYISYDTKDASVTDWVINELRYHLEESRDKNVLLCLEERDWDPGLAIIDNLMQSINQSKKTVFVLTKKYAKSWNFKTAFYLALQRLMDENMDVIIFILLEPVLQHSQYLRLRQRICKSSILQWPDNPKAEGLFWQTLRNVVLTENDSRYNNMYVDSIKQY
The test is described as follows: HEK293 NFKB reporter assay, human TLR8. Format: cell-based. As to conditions: HEK293 reporter cells expressing human TLR8; read-out: HEK293 hTLR8 EC50. As for the experimental part:
as §1, §2, §3

In the case of `CCCN(OCC)C(=O)C1=Cc2ccc(S(=O)(=O)c3ccc(C(=O)OC)cc3)cc2N=C(N)C1` [8SO2Bz-1], the 50% effective concentration (EC50) at human TLR7 is greater than 9000 nM.
As to `CCCN(OCCCC(=O)OC(C)(C)C)C(=O)C1=Cc2ccc(S(=O)(=O)N(C)C)cc2N=C(N)C1` [8SO2Bz-2], the values for the EC50 at human TLR8 and at human TLR7 were less than 2.3 nM and 395 nM, respectively.
Regarding `CCCN(OCC)C(=O)C1=Cc2ccc(S(=O)(=O)NC)cc2N=C(N)C1` [8SO2Bz-3], at human TLR7, the EC50 is greater than 5000 nM.
